In US20230219979A1, “PYRAZOLO[1,5-a]PYRIDINE COMPOUND, PREPARATION METHOD THEREFOR AND USE THEREOF” (SHENZHEN ZHONGGE BIOLOGICAL TECHNOLOGY CO., LTD., priority 2019, published 2023):
pIC50: −log10 of the molar value.

Key:
RET M918T = RET M918T (Homo sapiens, UniProt P07949, M918T); experiment: Inhibitory activity against RET kinase mutant RET M918T; assay type: biochemical; settings: read-out: median inhibitory activity (IC50) against RET M918T
RET G810R kinase = RET G810R kinase (Homo sapiens, UniProt P07949, G810R); experiment: HTRF method for testing the inhibitory activity against RET G810R; assay type: biochemical; settings: for pIC50: HTRF; for inhibitory activity against G810R (in words): mutant strain of RET kinase
Wild-type RET kinase = Wild-type RET kinase (Homo sapiens, UniProt P07949); experiment: HTRF method for testing the inhibitory activity of compounds against RET; assay type: biochemical; settings: HTRF; read-out: Wild-type RET kinase
CCDC6-RET = biological target: T1, CCDC6-RET (Homo sapiens, UniProt P07949); experiment: Inhibitory activity against RET gene fusion CCDC6-RET; assay type: biochemical; settings: read-out: median inhibitory activity (IC50) against CCDC6-RET
T1 construct: CCDC6 (fusion partner, N-terminal part); the other entry of the earlier key: CCDC6 (Q16204, Coiled-coil domain-containing protein 6)
T1 sequence (P07949 with tags, fused parts or gaps): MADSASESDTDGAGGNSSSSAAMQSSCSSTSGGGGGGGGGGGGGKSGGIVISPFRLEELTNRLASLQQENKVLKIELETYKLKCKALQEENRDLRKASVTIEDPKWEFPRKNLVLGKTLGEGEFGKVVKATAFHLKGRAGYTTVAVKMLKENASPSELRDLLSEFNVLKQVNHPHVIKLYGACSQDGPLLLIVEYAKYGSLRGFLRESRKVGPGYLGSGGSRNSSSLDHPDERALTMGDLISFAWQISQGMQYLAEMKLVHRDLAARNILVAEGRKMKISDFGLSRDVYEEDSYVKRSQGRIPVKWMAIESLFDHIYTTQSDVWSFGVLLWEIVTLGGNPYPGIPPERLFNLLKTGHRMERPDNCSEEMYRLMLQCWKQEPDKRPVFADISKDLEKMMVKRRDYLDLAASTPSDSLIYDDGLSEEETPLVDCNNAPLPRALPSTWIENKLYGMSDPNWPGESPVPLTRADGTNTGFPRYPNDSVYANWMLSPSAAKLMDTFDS

RET G810S kinase = RET G810S kinase (Homo sapiens, UniProt P07949, G810S); experiment: HTRF method for testing the inhibitory activity against RET G810S; assay type: biochemical; settings: for pIC50: HTRF; for inhibitory activity against G810S (in words): mutant strain of RET kinase
Ba/F3-KIF5B-RET cell = biological target: T2, Ba/F3-KIF5B-RET cell (Homo sapiens, UniProt P07949); experiment: CellTiter-Glo luminescence assay, inhibitory activity against Ba/F3-KIF5B-RET cell; assay type: cell-based; settings: 72 h, read-out: Ba/F3-KIF5B-RET cell activity
T2 construct: fused on or other part: P33176 (Kinesin-1 heavy chain)
Summary of the method: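 Ba/F3 cells stably expressing human KIF5B-RET, 800 per well, treated 72 h at 37° C with 10 compound concentrations from 5000 to 0.254 nM (0.5% DMSO). Viability by CellTiter-Glo luminescence; IC50 from curve fitting.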

RET V804M = RET V804M (Homo sapiens, UniProt P07949, V804M); experiment: Inhibitory activity against RET kinase mutant RET V804M; assay type: biochemical; settings: read-out: median inhibitory activity (IC50) against RET V804M
VEGFR2 kinase = VEGFR2 kinase (Homo sapiens, UniProt P35968); experiment: HTRF method for testing the inhibitory activity of compounds against VEGFR2; assay type: biochemical
Sequence of VEGFR2 kinase (P35968 20-1356): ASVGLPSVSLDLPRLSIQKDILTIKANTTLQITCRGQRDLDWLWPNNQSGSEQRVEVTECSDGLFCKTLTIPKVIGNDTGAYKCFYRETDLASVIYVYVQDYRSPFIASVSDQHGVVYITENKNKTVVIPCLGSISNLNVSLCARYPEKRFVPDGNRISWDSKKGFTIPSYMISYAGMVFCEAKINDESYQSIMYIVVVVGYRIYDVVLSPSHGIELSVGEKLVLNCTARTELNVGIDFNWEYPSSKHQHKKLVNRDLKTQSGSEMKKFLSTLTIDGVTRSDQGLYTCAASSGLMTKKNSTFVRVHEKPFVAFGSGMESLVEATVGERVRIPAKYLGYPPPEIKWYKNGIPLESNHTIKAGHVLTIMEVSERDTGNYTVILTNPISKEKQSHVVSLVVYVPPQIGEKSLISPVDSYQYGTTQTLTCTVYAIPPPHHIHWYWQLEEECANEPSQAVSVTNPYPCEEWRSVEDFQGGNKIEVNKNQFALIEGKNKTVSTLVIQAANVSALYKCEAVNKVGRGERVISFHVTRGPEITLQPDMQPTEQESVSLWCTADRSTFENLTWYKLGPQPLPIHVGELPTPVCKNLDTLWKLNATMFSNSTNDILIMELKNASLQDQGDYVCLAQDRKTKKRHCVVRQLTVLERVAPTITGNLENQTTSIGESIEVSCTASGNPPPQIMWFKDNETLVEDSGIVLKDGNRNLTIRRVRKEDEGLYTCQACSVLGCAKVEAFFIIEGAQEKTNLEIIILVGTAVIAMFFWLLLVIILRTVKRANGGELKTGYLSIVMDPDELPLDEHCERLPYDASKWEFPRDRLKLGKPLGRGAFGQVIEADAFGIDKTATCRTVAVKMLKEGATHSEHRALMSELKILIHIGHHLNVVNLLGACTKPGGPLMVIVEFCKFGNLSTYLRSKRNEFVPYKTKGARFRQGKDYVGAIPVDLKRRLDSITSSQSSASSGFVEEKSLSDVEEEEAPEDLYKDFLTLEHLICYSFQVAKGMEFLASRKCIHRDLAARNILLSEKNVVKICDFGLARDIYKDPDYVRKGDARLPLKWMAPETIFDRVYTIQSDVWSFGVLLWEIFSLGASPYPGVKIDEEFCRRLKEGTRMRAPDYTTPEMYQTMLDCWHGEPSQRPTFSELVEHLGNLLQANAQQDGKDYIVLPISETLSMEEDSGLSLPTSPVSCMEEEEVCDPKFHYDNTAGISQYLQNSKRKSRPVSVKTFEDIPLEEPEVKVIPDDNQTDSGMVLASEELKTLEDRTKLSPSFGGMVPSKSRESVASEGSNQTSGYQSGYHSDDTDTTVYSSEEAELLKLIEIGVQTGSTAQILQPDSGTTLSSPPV

Sequence of RET G810S kinase (P07949 29-1114 G810S): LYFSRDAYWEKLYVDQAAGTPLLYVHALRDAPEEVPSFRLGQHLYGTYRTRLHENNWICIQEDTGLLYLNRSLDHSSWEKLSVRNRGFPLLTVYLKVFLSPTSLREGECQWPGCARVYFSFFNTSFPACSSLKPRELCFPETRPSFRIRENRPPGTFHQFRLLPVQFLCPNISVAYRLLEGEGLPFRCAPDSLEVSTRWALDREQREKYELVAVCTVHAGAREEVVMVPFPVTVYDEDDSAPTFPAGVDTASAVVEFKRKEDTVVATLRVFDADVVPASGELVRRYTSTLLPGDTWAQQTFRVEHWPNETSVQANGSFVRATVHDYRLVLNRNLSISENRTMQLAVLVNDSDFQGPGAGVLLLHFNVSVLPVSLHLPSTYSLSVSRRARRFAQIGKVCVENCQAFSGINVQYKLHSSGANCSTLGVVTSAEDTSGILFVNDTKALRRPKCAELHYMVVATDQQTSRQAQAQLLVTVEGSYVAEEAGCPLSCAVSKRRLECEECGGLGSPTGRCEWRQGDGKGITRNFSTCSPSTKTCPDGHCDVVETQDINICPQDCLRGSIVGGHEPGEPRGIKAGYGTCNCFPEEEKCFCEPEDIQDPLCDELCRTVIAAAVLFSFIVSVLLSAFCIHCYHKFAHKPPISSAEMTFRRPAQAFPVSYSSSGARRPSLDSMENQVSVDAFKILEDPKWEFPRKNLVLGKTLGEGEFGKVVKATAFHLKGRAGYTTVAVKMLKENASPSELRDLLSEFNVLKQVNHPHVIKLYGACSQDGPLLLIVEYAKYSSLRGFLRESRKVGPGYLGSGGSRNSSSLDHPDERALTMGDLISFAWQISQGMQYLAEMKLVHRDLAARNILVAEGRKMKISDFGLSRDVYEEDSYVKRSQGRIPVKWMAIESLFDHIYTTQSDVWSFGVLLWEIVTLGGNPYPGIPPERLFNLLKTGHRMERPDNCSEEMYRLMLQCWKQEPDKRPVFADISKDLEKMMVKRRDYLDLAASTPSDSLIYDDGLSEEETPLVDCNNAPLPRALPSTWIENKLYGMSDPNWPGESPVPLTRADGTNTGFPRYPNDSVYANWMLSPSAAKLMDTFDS
T2 sequence (P07949 whole entry, stated change not applied, the tested form may be a part): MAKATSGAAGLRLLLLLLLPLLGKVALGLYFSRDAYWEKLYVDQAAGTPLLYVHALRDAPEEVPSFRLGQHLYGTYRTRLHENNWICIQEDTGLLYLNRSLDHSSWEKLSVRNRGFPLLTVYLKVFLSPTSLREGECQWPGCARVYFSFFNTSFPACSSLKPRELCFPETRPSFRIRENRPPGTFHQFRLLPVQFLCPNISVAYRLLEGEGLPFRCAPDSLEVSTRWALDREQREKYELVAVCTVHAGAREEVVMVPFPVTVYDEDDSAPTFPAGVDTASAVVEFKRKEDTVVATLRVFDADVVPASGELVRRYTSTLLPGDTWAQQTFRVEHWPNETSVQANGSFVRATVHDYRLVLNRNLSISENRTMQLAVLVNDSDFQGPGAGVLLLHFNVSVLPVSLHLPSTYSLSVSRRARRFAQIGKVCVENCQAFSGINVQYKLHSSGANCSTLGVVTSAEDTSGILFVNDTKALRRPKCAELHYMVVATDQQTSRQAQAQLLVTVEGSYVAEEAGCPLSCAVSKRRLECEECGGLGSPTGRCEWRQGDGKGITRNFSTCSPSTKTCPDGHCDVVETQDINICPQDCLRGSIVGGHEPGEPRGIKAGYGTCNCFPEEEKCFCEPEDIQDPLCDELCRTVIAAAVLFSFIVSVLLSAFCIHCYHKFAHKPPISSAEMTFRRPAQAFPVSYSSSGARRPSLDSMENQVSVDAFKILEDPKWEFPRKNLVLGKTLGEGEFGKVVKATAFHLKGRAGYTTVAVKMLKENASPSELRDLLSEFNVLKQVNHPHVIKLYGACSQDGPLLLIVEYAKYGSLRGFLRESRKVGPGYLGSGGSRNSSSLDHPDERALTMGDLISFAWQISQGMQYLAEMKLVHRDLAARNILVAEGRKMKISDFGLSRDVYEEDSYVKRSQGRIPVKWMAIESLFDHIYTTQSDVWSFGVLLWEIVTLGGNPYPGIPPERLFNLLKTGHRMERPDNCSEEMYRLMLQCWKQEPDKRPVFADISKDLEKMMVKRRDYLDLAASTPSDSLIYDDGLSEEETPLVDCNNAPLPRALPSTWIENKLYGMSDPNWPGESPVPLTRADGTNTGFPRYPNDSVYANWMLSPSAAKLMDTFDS
Sequence of RET G810R kinase (P07949 29-1114 G810R): as the sequence (P07949 29-1114 G810S) above, with S782R counted along it
Sequence of Wild-type RET kinase (P07949 29-1114): as the sequence (P07949 29-1114 G810S) above, with S782G counted along it
Sequence of RET M918T (P07949 29-1114 M918T): as the sequence (P07949 29-1114 G810S) above, with S782G, M890T counted along it
Sequence of RET V804M (P07949 29-1114 V804M): as the sequence (P07949 29-1114 G810S) above, with V776M, S782G counted along it

Row | Structure (SMILES) | pIC50 (RET M918T) | pIC50 (RET G810R kinase) | inhibitory activity against G810R (in words) (RET G810R kinase) | pIC50 (Wild-type RET kinase) | pIC50 (CCDC6-RET) | pIC50 (RET G810S kinase) | inhibitory activity against G810S (in words) (RET G810S kinase) | GI50 (Ba/F3-KIF5B-RET cell) | pIC50 (RET V804M) | pIC50 (VEGFR2 kinase)
1 | CCNc1cc(-c2cnc(N3CC4CC(C3)N4Cc3ccc(OC)nc3)cn2)c2c(C#N)cnn2c1 [Compound 29, 6-(ethylamino)-4-(5-(-6-((6-methoxypyridin-3-yl)methyl)-3,6-diazabicyclo[3.1.1]heptane-3-yl)pyrazin-2-yl)pyrazolo[1,5-a]pyridine-3-carbonitrile] | > 8.30 | 7.62 | good inhibitory activity | 9.74 | > 8.30 | 8.71 | good inhibitory activity | 4.43 nM | > 8.30 | 7.25
2 | CCNc1cc(-c2ccc(N3CC4CC(C3)N4Cc3ccc(-n4cc(F)cn4)nc3)nc2)c2c(C#N)cnn2c1 [Compound 52, 6-(ethylamino)-4-(6-(6-((6-(4-fluoro-1H-pyrazol-1-yl)pyridin-3-yl)methyl)-3,6-diazabicyclo[3.1.1]heptan-3-yl)pyridin-3-yl)pyrazolo[1,5-a]pyridine-3-carbonitrile] | > 8.30 | – | – | 8.69 | > 8.30 | – | – | 142 nM | > 8.30 | 7.41
3 | COc1ccc(CN2C3CC2CN(c2ccc(-c4cc(NC(C)C)cn5ncc(C#N)c45)cn2)C3)cn1 [Compound 69, 6-(isopropylamino)-4-(6-(6-((6-methoxypyridin-3-yl)methyl)-3,6-diazabicyclo[3.1.1]heptyl-3-yl)pyridin-3-yl)pyrazolo[1,5-a]pyridine-3-carbonitrile] | – | 7.37 | good inhibitory activity | 9.33 | – | 7.57 | good inhibitory activity | 4.14 nM | – | 7.37
4 | COc1ccc(CN2C3CC2CN(c2ccc(-c4cc(N5CCOCC5)cn5ncc(C#N)c45)cn2)C3)cn1 [Compound 70, 4-(6-(6-((6-methoxypyridin-3-yl)methyl)-3,6-diazabicyclo[3.1.1]heptyl-3-yl)pyridin-3-yl)-6-morpholinopyrazolo[1,5-a]pyridine-3-carbonitrile] | – | 7.50 | good inhibitory activity | 9.62 | – | 7.98 | good inhibitory activity | 1.97 nM | – | 7.24
